For assay [1], the system named is Abeta 40 in cerebrospinal fluid (CSF) and brain. Put plainly: In vivo inhibition of beta-secretase (Abeta 40 reduction in CSF and brain). The following applies: rat, after 4 hrs; for inhibition in vivo at 10 mg/kg: Abeta 40, 10 mg/kg (10 mpk); for inhibition in vivo at 3 mg/kg: Abeta 40, 3 mpk. The source says:
In Vivo Inhibition of Beta-Secretase
Several animal models, including mouse, rat, dog, and monkey, may be used to screen for inhibition of beta-secretase activity in vivo following administration of a test compound sample. Animals used in this invention can be wild type, transgenic, or gene knockout animals. […] A separate group of animals receive 2% hydroxypropyl methylcellulose, 1% Tween80 alone, containing no test compound, and serve as a vehicle-control group. At the end of the test period, animals are sacrificed and brain tissues, plasma or cerebrospinal fluid are collected. […] Homogenates are centrifuged at 355,000 g, 4° C. for 30 minutes. CSF or brain supernatants are then analyzed for the presence of A-beta peptide by specific sandwich ELISA assays based on ECL (Electrochemiluminescence) technology. For example, rat Abeta40 is measured using biotinylated-4G8 (Signet) as a capture antibody and Fab40 (an in-house antibody specific to the C-terminal of Abeta40) as a detection antibody.
Actual vehicles used: Oral: 2% HPMC, 1% Tween80, pH 2.2

The target of assay [2] is Beta Secretase enzyme (BACE) (Homo sapiens, UniProt P56817). Description: In vitro enzymatic BACE FRET (fluorescence resonance energy transfer) assay. The following applies: average IC50, enzyme assay; read-out: BACE 1 FRET assay. Format: biochemical. The gist of the method: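 Acetate buffer (0.05 M, pH 4.2), 10% DMSO final, 100 uM nonionic detergent genapol. Substrate addition (50 nM FRET peptide) initiates; one-hour incubation; Tris raises pH to neutrality before fluorescence measurement.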

The test system of assay [3] is Aβ40 in conditioned medium of cells stably expressing Amyloid Precursor Protein (APP). Description: In vitro BACE cell-based assay (Aβ40 in conditioned medium, sandwich ELISA). The following applies: Homo sapiens, read-out: HEK cell assay. The gist of the method:
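Quantification relied on pAb40/6E10 sandwich ELISA with Europium fluorescence counts, and IC50 was fitted versus concentration.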
Background: In an ELISA, binding on a coated surface is turned into a signal by an enzyme label.

The mark [4] stands for this setting: CSF, read-out: CSF A-beta reduction % at 10 mg/kg.
[5] abbreviates: brain, read-out: Brain A-beta reduction % at 10 mg/kg.
Setting [6] is: HEK293, average IC50, HEK cells.
Where [7] appears, read: CSF, read-out: CSF A-beta reduction % at 3 mpk.
Where [8] appears, read: brain, read-out: Brain A-beta reduction % at 3 mpk.

Like-named read-outs stand apart in the source and are kept apart here.

Chain of Beta Secretase enzyme (BACE) (P56817 46-501, species assumed): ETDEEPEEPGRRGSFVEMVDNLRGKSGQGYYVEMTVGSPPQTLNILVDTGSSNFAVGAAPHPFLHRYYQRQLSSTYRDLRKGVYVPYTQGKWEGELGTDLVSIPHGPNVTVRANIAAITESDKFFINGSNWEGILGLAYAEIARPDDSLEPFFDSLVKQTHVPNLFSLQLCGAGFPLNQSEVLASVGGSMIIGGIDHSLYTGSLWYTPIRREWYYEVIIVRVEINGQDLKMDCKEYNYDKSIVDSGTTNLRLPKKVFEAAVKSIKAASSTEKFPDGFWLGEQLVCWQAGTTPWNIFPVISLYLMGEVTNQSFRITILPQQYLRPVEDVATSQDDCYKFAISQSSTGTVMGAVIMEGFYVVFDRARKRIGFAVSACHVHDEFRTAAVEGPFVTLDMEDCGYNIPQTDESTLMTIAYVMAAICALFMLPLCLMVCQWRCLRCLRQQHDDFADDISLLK

Take `CC1(C)C=C(c2cc3c(cn2)Oc2ccc(-c4cncc(F)c4)cc2[C@@]32COC(N)=N2)CCO1` [Example 135, (S)-3-(6,6-dimethyl-3,6-dihydro-2H-pyran-4-yl)-7-(5-fluoropyridin-3-yl)-5′H-spiro[chromeno[2,3-c]pyridine-5,4′-oxazol]-2′-amine]: the figures for the inhibition in vivo at 10 mg/kg in assay [1] (setting [4]) and in assay [1] (setting [5]) were 61% and 44%, respectively. For the same compound, the IC50 came to 1.3 nM in assay [2] and 10 nM in assay [3] (HEK293, average IC50).

In the case of `NC1=N[C@@]2(CO1)c1cc(-c3cccnc3)ccc1Oc1cnc(N3CCC(F)(F)C3)cc12` [Example 138, (S)-3-(3,3-difluoropyrrolidin-1-yl)-7-(pyridin-3-yl)-5′H-spiro[chromeno[2,3-c]pyridine-5,4′-oxazol]-2′-amine], the figures for the inhibition in vivo at 10 mg/kg in assay [1] (setting [4]) and in assay [1] (setting [5]) were 67% and 48%, respectively. The IC50 in assay [2] came to 1.1 nM; in assay [3] (setting [6]) it was 5.2 nM.

As for `NC1=N[C@@]2(CO1)c1cc(-c3cccnc3F)ccc1Oc1c(F)cc(N3CC4CCC(C3)O4)cc12` [Example 225, (4S)-2′-(8-oxa-3-azabicyclo[3.2.1]octan-3-yl)-4′-fluoro-7′-(2-fluoropyridin-3-yl)-5H-spiro[oxazole-4,9′-xanthen]-2-amine], the figures for the inhibition in vivo at 10 mg/kg in assay [1] (setting [4]) and in assay [1] (setting [5]) were 64% and 47%, respectively. For the same compound, the IC50 in assay [2] was 0.3 nM; in assay [3] (HEK293, average IC50), 1.6 nM.

`Cc1cnc(-c2cc(F)c3c(c2)[C@]2(COC(N)=N2)c2cc(-c4cccnc4F)ccc2O3)nc1` [Example 226, (S)-4′-fluoro-7′-(2-fluoropyridin-3-yl)-2′-(5-methylpyrimidin-2-yl)-5H-spiro[oxazole-4,9′-xanthen]-2-amine]: the values for the inhibition in vivo at 10 mg/kg in assay [1] (setting [4]) and in assay [1] (setting [5]) were 31% and 19%, respectively. Moreover, the IC50 in assay [2] amounted to 3.9 nM; in assay [3] (HEK293, average IC50), 27.2 nM.

Take `Cc1ccnc(F)c1-c1ccc2c(c1)[C@@]1(COC(N)=N1)c1cc(C3=CCOCC3)ncc1O2` [Example 236, (S)-3-(3,6-dihydro-2H-pyran-4-yl)-7-(2-fluoro-4-methylpyridin-3-yl)-5′H-spiro[chromeno[2,3-c]pyridine-5,4′-oxazol]-2′-amine]: the inhibition in vivo at 10 mg/kg in assay [1] (setting [4]) worked out at 58%; in assay [1] (setting [5]), 34%. In addition, the IC50 worked out at 0.9 nM in assay [2] and 6 nM in assay [3] (HEK293, average IC50).

Take `Cn1cc(-c2cc(F)c3c(c2)[C@]2(COC(N)=N2)c2cc(-c4ccc(F)nc4)ccc2O3)cn1` [Example 262, (S)-4′-fluoro-7′-(6-fluoropyridin-3-yl)-2′-(1-methyl-1H-pyrazol-4-yl)-5H-spiro[oxazole-4,9′-xanthen]-2-amine]: the inhibition in vivo at 10 mg/kg in assay [1] (setting [4]) is 36%; in assay [1] (setting [5]) it was 11%. For the same compound, the IC50 in assay [2] worked out at 3.3 nM; in assay [3] (HEK293, average IC50), 12.6 nM.

For the compound `CC1(C)C=C(c2cc3c(cn2)Oc2ccc(-c4ccc(F)nc4)cc2[C@@]32COC(N)=N2)CCO1` [Example 369, (S)-3-(6,6-dimethyl-3,6-dihydro-2H-pyran-4-yl)-7-(6-fluoropyridin-3-yl)-5′H-spiro[chromeno[2,3-c]pyridine-5,4′-oxazol]-2′-amine], the values for the inhibition in vivo at 10 mg/kg in assay [1] (setting [4]) and in assay [1] (setting [5]) were 46% and 31%, respectively. The IC50 in assay [2] amounted to 2.8 nM; in assay [3] (HEK293, average IC50), 16.2 nM.

As for `NC1=N[C@@]2(CO1)c1cc(-c3cccnc3)ccc1Oc1cnc(N3CCC(F)(F)CC3)cc12` [Example 402, (5S)-3-(4,4-difluoro-1-piperidinyl)-7-(3-pyridinyl)spiro[chromeno[2,3-c]pyridine-5,4′-[1,3]oxazol]-2′-amine], the values for the inhibition in vivo at 10 mg/kg in assay [1] (setting [4]) and in assay [1] (setting [5]) were 52% and 28%, respectively. Besides, the IC50 worked out at 2.4 nM in assay [2] and 13.1 nM in assay [3] (setting [6]).

Turning to `NC1=N[C@@]2(CO1)c1cc(-c3cncc(F)c3)ccc1Oc1cnc(N3CCC(F)(F)CC3)cc12` [Example 414, (5S)-3-(4,4-difluoro-1-piperidinyl)-7-(5-fluoro-3-pyridinyl)spiro[chromeno[2,3-c]pyridine-5,4′-[1,3]oxazol]-2′-amine], the inhibition in vivo at 10 mg/kg was 64% in assay [1] (setting [4]) and 44% in assay [1] (setting [5]). For the same compound, the IC50 in assay [2] is 1.5 nM; in assay [3] (setting [6]), 13.6 nM.

With `Cc1ccc(-c2cc(F)c3c(c2)[C@]2(COC(N)=N2)c2cc(OCC(C)(C)C#N)ccc2O3)cn1` [Example 443, (S)-3-(2-amino-4′-fluoro-2′-(6-methylpyridin-3-yl)-5H-spiro[oxazole-4,9′-xanthene]-7′-yloxy)-2,2-dimethylpropanenitrile], the inhibition in vivo at 10 mg/kg in assay [1] (setting [4]) was 35%; in assay [1] (setting [5]), 7%. The IC50 in assay [2] stood at 5 nM; in assay [3] (setting [6]), 11.6 nM.

With `NC1=N[C@@]2(CO1)c1cc(-c3cnccn3)ccc1Oc1c(F)cc(C3=CCOCC3)cc12` [Example 452, (S)-2′-(3,6-dihydro-2H-pyran-4-yl)-4′-fluoro-7′-(pyrazin-2-yl)-5H-spiro[oxazole-4,9′-xanthen]-2-amine], the inhibition in vivo at 10 mg/kg in assay [1] (setting [4]) worked out at 56%; in assay [1] (setting [5]), 35%. Moreover, the results for the IC50 in assay [2] and in assay [3] (setting [6]) were 2 nM and 11.5 nM, respectively.

In the case of `CC1(C#Cc2cnc3c(c2)[C@]2(COC(N)=N2)c2cc(-c4cccc(Cl)c4F)ccc2O3)COC1` [Example 463, (S)-7-(3-chloro-2-fluorophenyl)-3-((3-methyloxetan-3-yl)ethynyl)-5′H-spiro[chromeno[2,3-b]pyridine-5,4′-oxazol]-2′-amine], the inhibition in vivo at 10 mg/kg in assay [1] (setting [4]) was determined as 30%; in assay [1] (setting [5]), 9%. The IC50 stood at 0.8 nM in assay [2] and 14.3 nM in assay [3] (setting [6]).

Turning to `CC1(C)C=C(c2ccc3c(c2)[C@]2(COC(N)=N2)c2cc(-c4cncnc4)c(F)cc2O3)CCO1` [Example 508, (R)-7′-(6,6-dimethyl-3,6-dihydro-2H-pyran-4-yl)-3′-fluoro-2′-(pyrimidin-5-yl)-5H-spiro[oxazole-4,9′-xanthen]-2-amine], the inhibition in vivo at 10 mg/kg in assay [1] (setting [4]) worked out at 49%; in assay [1] (setting [5]) it was 25%. Further, the results for the IC50 in assay [2] and in assay [3] (setting [6]) were 3.7 nM and 14.4 nM, respectively.

Take `CC(C)(F)COc1cc(F)c2c(c1)[C@]1(COC(N)=N1)c1cc(-c3cncnc3)c(F)cc1O2` [Example 668, (4S)-3′,5′-difluoro-7′-(2-fluoro-2-methylpropoxy)-2′-(5-pyrimidinyl)spiro[1,3-oxazole-4,9′-xanthen]-2-amine]: the inhibition in vivo at 3 mg/kg was 55% in assay [1] (setting [7]) and 46% in assay [1] (setting [8]). Also, the figures for the IC50 in assay [2] and in assay [3] (setting [6]) were 0.8 nM and 11 nM, respectively.

With `NC1=N[C@@]2(CS1)c1cc(-c3cccnc3F)ccc1Oc1ncc(C3=CCCOC3)cc12` [Example 672, (5S)-3-(5,6-dihydro-2H-pyran-3-yl)-7-(2-fluoro-3-pyridinyl)spiro[chromeno[2,3-b]pyridine-5,4′-[1,3]thiazol]-2′-amine], the inhibition in vivo at 10 mg/kg is 64% in assay [1] (setting [4]) and 47% in assay [1] (setting [5]). Moreover, the values for the IC50 in assay [2] and in assay [3] (setting [6]) were 0.7 nM and 10 nM, respectively.

For the compound `NC1=N[C@@]2(CO1)c1cc(-c3c(F)ccnc3F)ccc1Oc1cnc(C3=CCCOC3)cc12` [Example 676, (5S)-7-(2,4-difluoro-3-pyridinyl)-3-(5,6-dihydro-2H-pyran-3-yl)spiro[chromeno[2,3-c]pyridine-5,4′-[1,3]oxazol]-2′-amine], the inhibition in vivo at 3 mg/kg in assay [1] (setting [7]) was 76%; in assay [1] (setting [8]), 74%. Besides, the IC50 in assay [2] worked out at 0.6 nM; in assay [3] (setting [6]), 6 nM.

Take `CC(F)(F)COc1cc(F)c2c(c1)[C@]1(CSC(N)=N1)c1cc(-c3cccnc3F)ccc1O2` [Example 724, (4S)-2′-(2,2-difluoropropoxy)-4′-fluoro-7′-(2-fluoro-3-pyridinyl)spiro[1,3-thiazole-4,9′-xanthen]-2-amine]: the inhibition in vivo at 10 mg/kg was 42% in assay [1] (setting [4]) and 27% in assay [1] (setting [5]). The IC50 in assay [2] is 1 nM; in assay [3] (HEK293, average IC50), 22 nM.

For the compound `NC1=N[C@@]2(CO1)c1cc(-c3cccnc3)ccc1Oc1c2cc(C2=CCCOC2)nc1F` [Example 745, (5S)-3-(5,6-dihydro-2-H-pyran-3-yl)-1-fluoro-7-(3-pyridinyl)spiro[chromeno[2,3-c]pyridine-5-4′-[1,3]oxazol]-2′-amine], the inhibition in vivo at 10 mg/kg in assay [1] (setting [4]) is 78%; in assay [1] (setting [5]), 69%. The IC50 in assay [2] is 0.4 nM; in assay [3] (HEK293, average IC50) it was 4 nM.

The values above are taken from patent US8883782B2, “Spiro-tetracyclic ring compounds as beta-secretase modulators and methods of use” (Amgen Inc., priority 2010, dated 2014).
